Experimental data published in publication PMC7613998, “Development of selective inhibitors of phosphatidylinositol 3-kinase C2α” (Nature Chemical Biology, 2022).

Columns and labels:
Test in all cases: biochemical
Set-up in all cases: SelectScreen Z'-LYTE purified kinase panel, per cent inhibition, mean of two points
Conditions in all cases: (μM)=Km app
PIM1 = PIM1 (Homo sapiens, UniProt P11309)
ROCK2 = ROCK2 (Homo sapiens, UniProt O75116)
AURKB (Aurora B) = AURKB (Aurora B) (Homo sapiens, UniProt Q96GD4)
IGF1R = IGF1R (Homo sapiens, UniProt P08069)
IRAK4 = biological target: T1, IRAK4 (Homo sapiens, UniProt Q9NWZ3)
T1 sequence (Q9NWZ3 1-460): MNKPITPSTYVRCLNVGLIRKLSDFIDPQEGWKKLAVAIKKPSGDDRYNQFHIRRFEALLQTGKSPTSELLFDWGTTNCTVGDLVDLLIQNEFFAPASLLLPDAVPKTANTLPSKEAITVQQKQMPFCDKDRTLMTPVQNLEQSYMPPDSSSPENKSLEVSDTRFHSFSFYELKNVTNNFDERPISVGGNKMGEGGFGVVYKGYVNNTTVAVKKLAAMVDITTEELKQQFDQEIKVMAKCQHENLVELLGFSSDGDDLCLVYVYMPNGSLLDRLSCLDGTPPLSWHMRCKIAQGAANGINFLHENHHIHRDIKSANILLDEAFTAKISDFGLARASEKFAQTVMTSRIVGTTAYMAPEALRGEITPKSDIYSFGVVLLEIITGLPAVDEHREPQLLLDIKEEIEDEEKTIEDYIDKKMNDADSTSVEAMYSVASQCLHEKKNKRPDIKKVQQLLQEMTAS

CSF1R (FMS) = CSF1R (FMS) (Homo sapiens, UniProt P07333)
CSF1R (FMS), sequence (P07333 whole entry): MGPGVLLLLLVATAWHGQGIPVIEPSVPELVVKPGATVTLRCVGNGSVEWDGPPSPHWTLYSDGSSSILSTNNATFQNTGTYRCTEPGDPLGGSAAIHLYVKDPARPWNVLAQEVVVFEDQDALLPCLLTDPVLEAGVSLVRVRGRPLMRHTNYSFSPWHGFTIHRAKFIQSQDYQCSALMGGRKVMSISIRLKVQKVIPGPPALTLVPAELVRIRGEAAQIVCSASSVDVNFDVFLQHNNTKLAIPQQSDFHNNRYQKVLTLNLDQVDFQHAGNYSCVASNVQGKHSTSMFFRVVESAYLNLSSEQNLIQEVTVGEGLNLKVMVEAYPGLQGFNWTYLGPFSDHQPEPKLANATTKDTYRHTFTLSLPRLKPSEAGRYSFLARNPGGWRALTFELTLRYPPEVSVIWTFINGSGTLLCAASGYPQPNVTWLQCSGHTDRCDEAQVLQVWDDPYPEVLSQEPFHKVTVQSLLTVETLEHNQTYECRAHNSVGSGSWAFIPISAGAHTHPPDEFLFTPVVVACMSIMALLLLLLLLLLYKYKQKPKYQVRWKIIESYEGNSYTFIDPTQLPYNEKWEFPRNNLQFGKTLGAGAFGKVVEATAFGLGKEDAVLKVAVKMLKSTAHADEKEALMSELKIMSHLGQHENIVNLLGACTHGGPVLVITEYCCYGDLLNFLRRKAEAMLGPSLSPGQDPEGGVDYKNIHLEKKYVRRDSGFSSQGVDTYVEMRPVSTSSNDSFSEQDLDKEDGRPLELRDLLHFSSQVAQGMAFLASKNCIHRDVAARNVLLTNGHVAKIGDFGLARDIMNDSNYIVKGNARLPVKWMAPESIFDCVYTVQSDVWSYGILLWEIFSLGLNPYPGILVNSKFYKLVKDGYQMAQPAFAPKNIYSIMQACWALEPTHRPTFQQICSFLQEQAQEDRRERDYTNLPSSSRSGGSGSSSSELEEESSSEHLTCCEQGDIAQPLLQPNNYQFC

TEK (Tie2) = TEK (Tie2) (Homo sapiens, UniProt Q02763)
TEK (Tie2), sequence (Q02763 whole entry): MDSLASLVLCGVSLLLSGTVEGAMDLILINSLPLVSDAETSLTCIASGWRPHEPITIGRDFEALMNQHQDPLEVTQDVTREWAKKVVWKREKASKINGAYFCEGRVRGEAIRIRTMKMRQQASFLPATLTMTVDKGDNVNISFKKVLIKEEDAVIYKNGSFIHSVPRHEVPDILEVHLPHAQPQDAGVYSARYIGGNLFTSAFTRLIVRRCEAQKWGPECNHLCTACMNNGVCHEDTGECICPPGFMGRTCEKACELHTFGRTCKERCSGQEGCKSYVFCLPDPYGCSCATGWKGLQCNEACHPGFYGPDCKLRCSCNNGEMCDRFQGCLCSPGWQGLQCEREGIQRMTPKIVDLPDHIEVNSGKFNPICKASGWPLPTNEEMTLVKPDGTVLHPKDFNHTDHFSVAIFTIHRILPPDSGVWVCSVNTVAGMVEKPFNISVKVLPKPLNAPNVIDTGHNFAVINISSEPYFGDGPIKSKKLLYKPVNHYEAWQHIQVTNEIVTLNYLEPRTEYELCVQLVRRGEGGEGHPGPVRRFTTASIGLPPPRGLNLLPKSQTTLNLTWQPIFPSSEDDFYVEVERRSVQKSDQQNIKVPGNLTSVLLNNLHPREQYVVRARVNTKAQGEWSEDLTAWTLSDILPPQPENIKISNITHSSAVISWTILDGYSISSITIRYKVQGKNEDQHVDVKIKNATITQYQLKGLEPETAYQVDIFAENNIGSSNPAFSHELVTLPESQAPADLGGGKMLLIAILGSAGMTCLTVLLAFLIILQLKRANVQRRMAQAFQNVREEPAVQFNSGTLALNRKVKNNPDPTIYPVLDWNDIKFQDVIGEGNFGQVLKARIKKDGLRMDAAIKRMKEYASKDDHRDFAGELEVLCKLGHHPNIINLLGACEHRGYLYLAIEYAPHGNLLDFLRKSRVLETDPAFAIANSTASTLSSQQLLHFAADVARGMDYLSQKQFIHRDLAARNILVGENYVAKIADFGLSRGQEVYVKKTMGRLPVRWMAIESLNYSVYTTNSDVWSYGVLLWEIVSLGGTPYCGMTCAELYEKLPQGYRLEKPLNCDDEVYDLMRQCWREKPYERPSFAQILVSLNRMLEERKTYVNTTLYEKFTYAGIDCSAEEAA

FGFR2 = FGFR2 (Homo sapiens, UniProt P21802)
FGFR2, sequence (P21802 whole entry): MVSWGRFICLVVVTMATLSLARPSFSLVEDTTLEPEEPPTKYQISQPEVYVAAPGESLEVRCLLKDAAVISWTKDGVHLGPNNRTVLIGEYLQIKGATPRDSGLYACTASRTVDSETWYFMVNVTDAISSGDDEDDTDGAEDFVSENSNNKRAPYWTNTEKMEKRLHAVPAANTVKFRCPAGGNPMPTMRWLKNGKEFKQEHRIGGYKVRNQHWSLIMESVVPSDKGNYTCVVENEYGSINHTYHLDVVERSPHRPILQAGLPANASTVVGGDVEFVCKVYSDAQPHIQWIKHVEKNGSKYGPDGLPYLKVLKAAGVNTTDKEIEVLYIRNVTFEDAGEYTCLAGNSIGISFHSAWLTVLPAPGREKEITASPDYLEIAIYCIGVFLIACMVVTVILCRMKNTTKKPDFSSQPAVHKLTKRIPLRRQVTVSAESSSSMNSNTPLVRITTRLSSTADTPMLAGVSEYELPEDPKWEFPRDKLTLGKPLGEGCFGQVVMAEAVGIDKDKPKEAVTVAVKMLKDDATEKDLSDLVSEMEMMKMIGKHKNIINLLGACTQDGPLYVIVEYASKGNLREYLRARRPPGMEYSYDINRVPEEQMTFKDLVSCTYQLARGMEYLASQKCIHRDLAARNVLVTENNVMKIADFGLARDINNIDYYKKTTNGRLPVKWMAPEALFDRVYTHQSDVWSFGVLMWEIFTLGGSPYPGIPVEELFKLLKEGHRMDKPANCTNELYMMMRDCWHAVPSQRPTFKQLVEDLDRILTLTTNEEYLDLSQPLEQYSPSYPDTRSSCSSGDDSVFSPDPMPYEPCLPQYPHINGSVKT

CSK = CSK (Homo sapiens, UniProt P41240)
EPHA2 = EPHA2 (Homo sapiens, UniProt P29317)
EPHA2, sequence (P29317 whole entry): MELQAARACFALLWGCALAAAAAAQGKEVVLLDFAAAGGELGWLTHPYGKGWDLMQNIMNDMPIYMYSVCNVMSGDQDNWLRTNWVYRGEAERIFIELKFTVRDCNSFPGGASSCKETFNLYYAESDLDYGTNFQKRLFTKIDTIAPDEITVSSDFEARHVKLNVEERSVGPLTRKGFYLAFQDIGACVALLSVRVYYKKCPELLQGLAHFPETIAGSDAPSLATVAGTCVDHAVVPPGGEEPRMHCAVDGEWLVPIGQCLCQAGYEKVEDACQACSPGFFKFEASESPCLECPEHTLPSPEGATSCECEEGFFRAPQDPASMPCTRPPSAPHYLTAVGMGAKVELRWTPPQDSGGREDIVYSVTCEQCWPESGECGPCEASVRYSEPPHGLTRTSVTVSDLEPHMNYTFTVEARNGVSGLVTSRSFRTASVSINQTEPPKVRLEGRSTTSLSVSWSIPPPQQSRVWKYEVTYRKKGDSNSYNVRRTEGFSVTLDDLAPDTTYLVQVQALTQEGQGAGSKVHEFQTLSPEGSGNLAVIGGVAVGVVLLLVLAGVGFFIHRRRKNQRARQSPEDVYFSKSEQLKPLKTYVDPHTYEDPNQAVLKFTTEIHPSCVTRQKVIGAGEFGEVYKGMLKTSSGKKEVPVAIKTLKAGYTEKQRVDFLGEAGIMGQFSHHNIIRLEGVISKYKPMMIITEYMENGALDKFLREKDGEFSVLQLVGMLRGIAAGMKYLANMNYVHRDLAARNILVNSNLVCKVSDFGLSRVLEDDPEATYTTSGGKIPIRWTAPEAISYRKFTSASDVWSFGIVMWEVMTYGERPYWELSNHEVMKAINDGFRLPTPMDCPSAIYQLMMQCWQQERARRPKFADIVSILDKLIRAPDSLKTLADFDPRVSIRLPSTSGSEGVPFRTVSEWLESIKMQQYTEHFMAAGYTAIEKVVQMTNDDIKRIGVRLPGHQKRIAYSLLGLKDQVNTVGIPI

MKNK1 (MNK1) = MKNK1 (MNK1) (Homo sapiens, UniProt Q9BUB5)
MKNK1 (MNK1), sequence (Q9BUB5 whole entry): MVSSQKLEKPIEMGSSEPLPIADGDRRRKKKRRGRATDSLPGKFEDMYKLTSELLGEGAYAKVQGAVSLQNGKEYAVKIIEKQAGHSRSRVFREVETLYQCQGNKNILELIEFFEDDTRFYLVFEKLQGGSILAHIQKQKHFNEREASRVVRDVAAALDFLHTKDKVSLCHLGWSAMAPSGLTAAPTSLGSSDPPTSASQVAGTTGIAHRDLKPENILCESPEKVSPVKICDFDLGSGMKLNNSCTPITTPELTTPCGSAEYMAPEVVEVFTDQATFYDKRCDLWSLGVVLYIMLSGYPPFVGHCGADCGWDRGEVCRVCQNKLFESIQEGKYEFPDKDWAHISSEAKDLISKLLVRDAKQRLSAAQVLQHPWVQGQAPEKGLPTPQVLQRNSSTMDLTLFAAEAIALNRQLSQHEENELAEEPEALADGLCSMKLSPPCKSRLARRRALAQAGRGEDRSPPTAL

DNA-PK = biological target: T2, DNA-PK (Homo sapiens, UniProt P78527)
T2 construct: gene PRKDC

SRC = SRC (Homo sapiens, UniProt P12931)
SRC, sequence (P12931 whole entry): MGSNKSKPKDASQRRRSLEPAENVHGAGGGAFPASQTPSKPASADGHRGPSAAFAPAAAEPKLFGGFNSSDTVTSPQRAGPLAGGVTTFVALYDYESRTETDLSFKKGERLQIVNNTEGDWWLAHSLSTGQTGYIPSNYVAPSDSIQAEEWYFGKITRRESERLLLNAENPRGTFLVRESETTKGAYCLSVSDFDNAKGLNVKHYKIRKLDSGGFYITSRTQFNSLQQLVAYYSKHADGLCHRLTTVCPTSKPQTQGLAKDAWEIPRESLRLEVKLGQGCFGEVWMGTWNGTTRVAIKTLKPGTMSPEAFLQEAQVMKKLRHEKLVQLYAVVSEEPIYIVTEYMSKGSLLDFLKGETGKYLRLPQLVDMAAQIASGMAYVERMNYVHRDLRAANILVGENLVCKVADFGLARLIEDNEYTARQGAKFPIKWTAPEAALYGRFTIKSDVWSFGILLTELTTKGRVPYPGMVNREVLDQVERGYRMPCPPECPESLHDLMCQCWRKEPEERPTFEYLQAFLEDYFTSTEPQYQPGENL

ZAP70 = biological target: T3, ZAP70 (Homo sapiens, UniProt P43403)
T3 sequence (P43403 1-619): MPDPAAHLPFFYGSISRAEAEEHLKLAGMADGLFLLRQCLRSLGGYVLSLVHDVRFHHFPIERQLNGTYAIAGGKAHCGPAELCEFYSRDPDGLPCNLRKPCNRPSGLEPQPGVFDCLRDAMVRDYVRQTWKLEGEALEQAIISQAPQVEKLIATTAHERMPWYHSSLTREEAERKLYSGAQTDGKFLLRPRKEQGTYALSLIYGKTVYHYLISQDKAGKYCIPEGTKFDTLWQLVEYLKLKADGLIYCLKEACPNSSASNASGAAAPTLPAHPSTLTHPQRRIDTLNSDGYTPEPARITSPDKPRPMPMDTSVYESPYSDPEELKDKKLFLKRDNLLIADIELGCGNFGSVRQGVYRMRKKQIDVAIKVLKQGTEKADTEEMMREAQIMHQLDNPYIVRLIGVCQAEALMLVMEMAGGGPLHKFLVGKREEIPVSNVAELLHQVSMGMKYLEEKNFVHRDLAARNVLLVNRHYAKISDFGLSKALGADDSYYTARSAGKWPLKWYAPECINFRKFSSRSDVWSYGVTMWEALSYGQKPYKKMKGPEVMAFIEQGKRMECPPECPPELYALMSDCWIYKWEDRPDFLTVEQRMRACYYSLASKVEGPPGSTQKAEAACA

## O=C(CSc1nc2nccnc2c(=O)n1CCc1ccccc1)Nc1nccs1 [compound 1, PITCOIN1]
PIM1
  inhibition at 1 µM: 8.8%
  inhibition at 3 µM: 5.6%
  inhibition at 10 µM: -0.465%
ROCK2
  inhibition at 1 µM: 2.33%
  inhibition at 3 µM: 1.58%
  inhibition at 10 µM: 5.34%
AURKB (Aurora B)
  inhibition at 1 µM: -15.7%
  inhibition at 3 µM: -5.68%
  inhibition at 10 µM: -10.8%
IGF1R
  inhibition at 1 µM: 7.35%
  inhibition at 3 µM: 2.59%
  inhibition at 10 µM: 5.33%
IRAK4
  inhibition at 1 µM: 10.7%
  inhibition at 3 µM: 2.87%
  inhibition at 10 µM: 6.89%
CSF1R (FMS)
  inhibition at 1 µM: 12.1%
  inhibition at 3 µM: 7.54%
  inhibition at 10 µM: 7.66%
TEK (Tie2)
  inhibition at 1 µM: 7.5%
  inhibition at 3 µM: 5.07%
  inhibition at 10 µM: 3.39%
FGFR2
  inhibition at 1 µM: 1.54%
  inhibition at 3 µM: 2.27%
  inhibition at 10 µM: -1.86%
CSK
  inhibition at 1 µM: 3.79%
  inhibition at 3 µM: 4.7%
  inhibition at 10 µM: 4.31%
EPHA2
  inhibition at 1 µM: 6.54%
  inhibition at 3 µM: 8.4%
  inhibition at 10 µM: 9.38%
MKNK1 (MNK1)
  inhibition at 1 µM: -10.5%
  inhibition at 3 µM: -9.2%
  inhibition at 10 µM: -14.3%
DNA-PK
  inhibition at 1 µM: 13.4%
  inhibition at 3 µM: 14.1%
  inhibition at 10 µM: 12.5%
SRC
  inhibition at 1 µM: 8.59%
  inhibition at 3 µM: 3.7%
  inhibition at 10 µM: 9.6%
ZAP70
  inhibition at 1 µM: 13.7%
  inhibition at 3 µM: 11.6%
  inhibition at 10 µM: 9.43%

## CS(=O)(=O)Nc1cccc(-c2csc(NC(=O)CSc3nc4nccnc4c(=O)n3CCc3ccccc3)n2)c1 [compound 3, PITCOIN3]
PIM1
  inhibition at 1 µM: -8.14%
  inhibition at 3 µM: 9.01%
  inhibition at 10 µM: 5.45%
ROCK2
  inhibition at 1 µM: 7.17%
  inhibition at 3 µM: -3.73%
  inhibition at 10 µM: 2.1%
AURKB (Aurora B)
  inhibition at 1 µM: -3.65%
  inhibition at 3 µM: 2.11%
  inhibition at 10 µM: 6.27%
IGF1R
  inhibition at 1 µM: 5.31%
  inhibition at 3 µM: 9.19%
  inhibition at 10 µM: 11.7%
IRAK4
  inhibition at 1 µM: 15.2%
  inhibition at 3 µM: 4.2%
  inhibition at 10 µM: 9.92%
CSF1R (FMS)
  inhibition at 1 µM: 10.1%
  inhibition at 3 µM: 14%
  inhibition at 10 µM: 13.3%
TEK (Tie2)
  inhibition at 1 µM: 8.6%
  inhibition at 3 µM: 10.7%
  inhibition at 10 µM: 5.64%
FGFR2
  inhibition at 1 µM: 6.04%
  inhibition at 3 µM: 6.91%
  inhibition at 10 µM: 3.2%
CSK
  inhibition at 1 µM: 9.48%
  inhibition at 3 µM: 7.4%
  inhibition at 10 µM: 6.13%
EPHA2
  inhibition at 1 µM: 13.8%
  inhibition at 3 µM: 8.03%
  inhibition at 10 µM: 8.38%
MKNK1 (MNK1)
  inhibition at 1 µM: -3.26%
  inhibition at 3 µM: -7.92%
  inhibition at 10 µM: 0.613%
DNA-PK
  inhibition at 1 µM: 11%
  inhibition at 3 µM: 23.7%
  inhibition at 10 µM: 23.3%
SRC
  inhibition at 1 µM: 9.83%
  inhibition at 3 µM: 12.2%
  inhibition at 10 µM: 7.36%
ZAP70
  inhibition at 1 µM: 17.4%
  inhibition at 3 µM: 12.6%
  inhibition at 10 µM: 14.5%
